The values that follow come from ChEMBL document CHEMBL1151336, “Recent Biosynthetic Studies on Antibiotics” (J Nat Prod, 1980).

Molecules are shown by their SMILES. In brackets after ≈: the same amount, converted by molar mass.

For one data set, the system named is Rous sarcoma virus. Nature of the data set: Antiviral activity against Rous sarcoma virus at 0.5 mg/kg. The format is functional.
Data set [1] is described as follows: Toxicity in orally dosed mouse. The format is organism-based. Conditions: in vivo, po.
Another data set relates to Bacillus subtilis. Nature of the data set: Antibacterial activity against Bacillus subtilis. The format is functional.
The subject of a further data set is KB. Nature of the data set: Cytotoxicity against human KB cells. It is filed as functional.

For `CC(=O)c1cccc(N[C@H]2[C@H](N)[C@@](NC(=O)N(C)C)([C@H](C)O)[C@@](C)(O)[C@@]2(O)COC(=O)c2c(C)cccc2O)c1` [PACTAMYCIN], in the data set on Rous sarcoma virus, the inhibition in vivo at 0.5 mg/kg is 30%. The LD50 in data set [1] was 10.7 mg/kg. Besides, the results for the MIC against Bacillus subtilis and against KB were 0.8 µg/mL (≈ 1.43 µM) and 0.003 µg/mL (≈ 0.00537 µM), respectively.

In general, inhibition in vivo refers to the share of the control response that was lost under treatment. One may read the LD50 as the dose at which mortality reaches 50%.
